What was measured:
[1] = test system: aerosol administered histamine challenge; experiment: protection of conscious guinea pigs from an aerosol administered histamine challenge; type: in vivo, guinea pig; details: 30 minutes before continuous aerosol of histamine
Method: The compounds were examined for their ability to protect conscious guinea pigs from an aerosol administered histamine challenge. The compounds were given 30 minutes before the animals were challenged with a continuous aerosol of histamine.

[2] = test system: pentagastrin-stimulated gastric acid secretion; experiment: inhibition of pentagastrin-stimulated gastric acid secretion in the perfused rat stomach preparation (Ghosh and Schild preparation); type: in vivo; details: 500 μg/kg, intravenously
Method: The anti-secretory activity of the compounds was determined by their inhibition of pentagastrin-stimulated gastric acid secretion in the perfused rat stomach preparation (Ghosh and Schild preparation).

mice = experiment: toxicity in mice; type: in vivo; details: dosed up to 900 mg/kg, subcutaneously
[3] = test system: 5-hydroxytryptamine-induced bronchoconstriction; experiment: inhibition of 5-hydroxytryptamine-induced bronchoconstriction in the anaesthetised, artificially respired guinea pig (Konzett-Rossler preparation); type: in vivo; details: Cavia porcellus, iv, intravenously, read-out: inhibition of bronchoconstriction, IC50
Excerpt: The compounds were examined for their ability to inhibit 5-hydroxytryptamine-induced bronchoconstriction in the anaesthetised, artificially respired guinea pig (Konzett-Rossler preparation).

| Compound | time taken to elicit a pre-convulsive cough compared with control animals ([1]; 2.5 mg/kg, intra-peritoneally) | time taken to elicit a pre-convulsive cough compared with control animals ([1]; 10 mg/kg orally) | inhibition of acid secretion [2] | toxic symptoms (mice) | ED50 [3] [mg/kg] |
| --- | --- | --- | --- | --- | --- |
| CCCCCCC(C)(O)CCN1C(=O)C(C)(C)C(=O)C1CCCCCCC(=O)O (centres unmarked) [2-(6'-Carboxy-n-hexyl)-4,4-dimethyl-1-(3"-hydroxy-3"-methyl-n-nonyl)pyrrolidin-3,5-dione] | significantly prolonged | significantly prolonged | – | – | – |
| CCCCCCC(C)(O)CCN1C(=O)C(C)(C)C(=O)C1CCCCCCC(=O)OCC (centres unmarked) [4,4-Dimethyl-2-(6'-ethoxycarbonyl-n-hexyl)-1-(3"-hydroxy-3"-methyl-n-nonyl)-pyrrolidin-3,5-dione] | – | – | inhibited acid secretion | No toxic symptoms were observed | ~0.01 |

Reference: US4187312A, “3-Hydroxy-4,4-dimethyl-5-pyrrolidone derivatives” (Beecham Group Limited, priority 1975, dated 1980)
